B1: neurotrophin-3 (protein, UniProt P20783 139-257, looked up)
Neurotrophin-3: YAEHKSHRGEYSVCDSESLWVTDKSSAIDIRGHQVTVLGEIKTGNSPVKQYFYETRCKEARPVKNGCRGIDDKHWNSQCKTSQTYVRALTSENNKLVGWRWIRIDTSCVCALSRKIGRT
modifications: Neurotrophin-3
notes: neurotrophic agent neurotrophin-3

Assays:
[1] = test system: TrJ mice; test: Motor function: grip strength test and four-limb wire hanging strength test (Example 2); type: in vivo; settings: endpoint, 4 months post injection; P<0.05
Description: Mice were tested for motor functions at the endpoint (4 months post injection) by performing grip strength test and four-limb wire hanging strength test. […] (Error bars represent standard error of the mean. Student t test was performed).
Wire Hang test: The mice were allowed to grasp by their four paws a 2-mm diameter metal wire maintained horizontally 35 cm above a thick layer of soft bedding (device made by the NCH Bioengineering Department according to the specifications of Klein et al.). […] The length of time until the mice fell from the wire was recorded. After each fall, the mice were allowed to recover for 1 minute. Each session consisted of three trials from which the scores were averaged.
Motor function testing Tr^J mice were tested for baseline motor function within 1 week prior to receiving i.m. injection of ssAAV1.CMV.NT-3 or PBS. Motor function tests included bilateral simultaneous hindlimb grip power and that of the left hind paw using a grip strength meter (Chatillon Digital Meter; Model DFIS-2; Columbus Instruments, Columbus, Ohio). Bilateral or unilateral grip strength was assessed by allowing the animals to grasp a platform followed by pulling the animal until it releases the platform; the force measurements were recorded in four separate trials. Measurements were performed on the same day and time of each week. […]

[2] = test system: Tr^J mice; test: Functional studies: hind limb grip strength, wire hanging test (Example 1); type: in vivo; settings: at 16 weeks of treatment
Description: Additional studies were designed to assess the efficacy of pyruvate treatment using a quantitative test that has functional significance. Six Tr^J mice received SP in their drinking water and the sciatic nerve conduction studies were carried out at baseline and 16 weeks of SP supplementation. Among the parameters obtained from these studies CMAP is a direct measure of the size of the motor unit. Results were compared to age-matched Tr^J-control cohort. Functional studies (hind limb grip strength, wire hanging test and rotorod) were done at baseline and at 7 to 10 day intervals.
Wire Hang test: The mice were allowed to grasp by their four paws a 2-mm diameter metal wire maintained horizontally 35 cm above a thick layer of soft bedding (device made by the NCH Bioengineering Department according to the specifications of Klein et al.). Klein et al. J Neurosci Methods, 203:292-297 (2012). The length of time until the mice fell from the wire was recorded. After each fall, the mice were allowed to recover for 1 minute. […]
Motor function testing Tr^J mice were tested for baseline motor function within 1 week prior to receiving i.m. injection of ssAAV1.CMV.NT-3 or PBS. […] Bilateral or unilateral grip strength was assessed by allowing the animals to grasp a platform followed by pulling the animal until it releases the platform; the force measurements were recorded in four separate trials. […]

[3] = test system: Sciatic Nerves from Tr^J Mice; test: g ratio of the myelinated fibers, sciatic nerve crush/regeneration study (Example 1); type: in vivo; settings: for percent of fibers with G ratio less than 0.8: SP 4% in drinking water, 20 weeks; for percent of fibers within a G ratio range of 0.4-0.7: pyruvate group, control Tr^J 6.5%
Description: (§1) Six weeks old Tr^J mice (pmp22^Tr-J) were used in this study. A total of 8 Tr^J mice (mouse model for demyelinating CMT) were studied. Five received SP, 4% in drinking water, 3 mice left untreated to serve as control. All treatment protocols and animal surgeries were conducted under the protocols approved by the Nationwide Children's Hospital and The Ohio State University Animal Care and Use Committee. Animals were acclimatized by placing on 2.5% apple juice first, which was increased to 20% a week later. In one group (pyruvate group; n=5) sodium pyruvate (Sigma) was added to apple juice in 2.5% concentration and a week later increased to 4%. The pyruvate group remained 4% sodium pyruvate in 20% apple juice drinking water throughout the duration of the study. The control group (n=3) continued on 20% apple juice only. Drinking solutions were freshly prepared every other day.
Both groups underwent sciatic nerve crush procedure one week after starting on sodium pyruvate in apple juice or apple juice alone, providing the results shown in FIGS. 1 and 2. Under isoflurane anesthesia left sciatic nerves were exposed and crushed with a fine forceps at a level 5 mm distal to the sciatic notch to generate a regeneration paradigm as previously described. Sahenk et al., Exp Neurol 224, 495-506 (2010). The crush site was marked by a 10-0 nylon suture tie passed through the epineurium. Mice were then killed quickly by an over-dosage of xylazine/ketamine anesthesia and the sciatic nerves from crushed and intact sites were removed under a dissecting microscope. Approximately 2 mm in length tissue blocks immediately distal to the crush site and the subsequent three segments, all marked for proximo-distal orientation as well as the mid sciatic segments from the contralateral uncrushed nerves were processed for plastic embedding for light microscope thick sections and electron microscopy using standard methods established by the inventors.
The g ratio refers to the ratio of axonal diameter/fiber diameter and lower g ratios represent axons with thicker myelin. Beuche, W., and Friede, R. L., Acta Neuropathol 66, 29-36 (1985); Friede, R. L., and Beuche, W., J Neurol Neurosurg Psychiatry 48, 749-756 (1985). For each animal, measurements from all fibers in 3 randomly selected representative unit areas were included and the g ratio distribution histograms were generated as percent of total fibers analyzed as previously described. Measurements from regenerating and intact nerves were obtained in each group. One way ANOVA was used to determine statistical analysis.

[4] = test system: TrJ mice; test: Nerve conduction studies, AAV1.NT-3 and pyruvate combinatorial therapy (Example 2); type: in vivo; settings: 4 months of treatment, 4% SP in drinking water; control group decreased (P<0.05)
Description: FIG. 4 provides a bar graph showing the results of nerve conduction studies that were performed at baseline and endpoint following 4 months of treatment duration. […] (Error bars represent standard error of the mean. Student t test was performed).
Using the methods described below, nerve conduction studies were performed at the baseline and the endpoint, 4 months post-AAV1.NT-3 injection. During this period TrJ mice were given ad libitum access to drinking water containing 4% SP.
(§2) Nerve Conduction Studies: Sciatic motor nerve conduction studies were performed on mice under isoflurane anesthesia using a portable electrodiagnostic system (Synergy N2 EMG and nerve conduction study machine, Natus, Middleton, Wis.) as previously described. Yalvac et al., Mol Ther. 22(7):1353-63 (2014). Distance for electrode placement was measured using a compass with a needle edge and a millimeter-graduated tape measure. The sciatic motor nerve conduction responses were recorded using two fine ring electrodes (Alpine Biomed, Skovlunde, Denmark) used as the active (E1) and reference (E2) electrodes. The active recording electrode was placed over the mid portion of the gastrocnemius muscle and the reference electrode over the tendon. […] The parameters measured included compound muscle action potential (CMAP) amplitude, distal latency, and conduction velocity.

[5] = test system: Sciatic Nerves from Tr^J Mice; test: Histopathology and myelinated fiber density, sciatic nerves at 16 weeks of treatment (Example 2); type: in vivo
[6] = test system: Sciatic Nerves from Tr^J Mice; test: Myelinated fiber density determinations, sciatic nerve crush/regeneration study (Example 1); type: in vivo; settings: 4% sodium pyruvate in drinking water, twenty weeks after crush
Description: as §1
Both groups underwent sciatic nerve crush procedure one week after starting on sodium pyruvate in apple juice or apple juice alone, providing the results shown in FIGS. 1 and 2. […]
Quantitative analysis at the light microscopic level was performed on 1 μm-thick toluidine blue stained cross sections from regenerating and intact uncrushed sciatic nerves from pyruvate and control groups. […] Unpaired t-test was calculated using graphPad Prism 6 program for comparison of the two sets of data.

[7] = test system: Tr^J mice; test: Sciatic nerve conduction studies (Example 1); type: in vivo
Excerpt: Additional studies were designed to assess the efficacy of pyruvate treatment using a quantitative test that has functional significance. […] Among the parameters obtained from these studies CMAP is a direct measure of the size of the motor unit. Results were compared to age-matched Tr^J-control cohort. Functional studies (hind limb grip strength, wire hanging test and rotorod) were done at baseline and at 7 to 10 day intervals.
as §2

[8] = test system: trembler^J (Tr^J) mouse; settings: previous studies of the inventors; cited from earlier work
[9] = test system: CMT1A patients; settings: previous studies of the inventors; cited from earlier work

| Molecule | four-limb wire hanging strength test vs control group [1] | grip strength test vs control group [1] | hind limb grip strength compared to the untreated Tr^J controls [2] | wire hanging test (WHT) compared to the untreated Tr^J controls [2] | G ratios (axon diameter/fiber diameter) in comparison to the control Tr^J ([3]; intact and regenerating sciatic nerves, lower g ratio = thicker myelin) | percent of fibers with G ratio less than 0.8 ([3]; intact nerves, control 42%) | percent of fibers within a G ratio range of 0.4-0.7 ([3]; intact nerves) | percent of fibers with G ratio less than 0.8 ([3]; regenerating nerves, control 17%) | percent of fibers within a G ratio range of 0.4-0.7 ([3]; regenerating nerves) | improving myelination during regeneration, more than that of the control group ([3]; regenerating nerves, pyruvate supplementation) | CMAP amplitudes at the endpoint compared to the baseline [4] | myelinated fibers and myelin thickness in toluidine blue stained sciatic nerve sections vs untreated ([5]; TrJ mice, 16 weeks of treatment) | Myelinated Fiber Density, mean ± SEM ([5]; sciatic nerves, Tr^J mice, treatment duration 16 wks) | Myelinated Fiber Density, Intact, mean ± SEM ([6]; intact (uncrushed) sciatic nerve, p = 0.0271 vs control) | Myelinated Fiber Density, Regenerating, mean ± SEM ([6]; regenerating (crushed) sciatic nerve, p = 0.0075 vs control) | Trends for improvements in conduction velocities and distal latencies ([7]; Tr^J mice, pyruvate supplementation) | CMAP amplitude of the Tr^J sciatic nerves, baseline vs endpoint ([7]; pyruvate supplementation for 24 weeks, untreated controls deteriorated further) | effect on trembler^J (Tr^J) mouse [8] | efficacy in CMT1A patients [9] |
| --- | --- | --- | --- | --- | --- | --- | --- | --- | --- | --- | --- | --- | --- | --- | --- | --- | --- | --- | --- |
| CC(=O)C(=O)[O-].[Na+] [pyruvate, sodium pyruvate] | performed better than control group | performed better than control group | significantly better | significantly better | significantly reduced | about 53% | about 29% | 43% | 22% | about 27% | preserved their CMAPs | notable increase in myelinated fibers and increased myelin thickness | 15000.2 ± 878.4 number/mm2 | 16583 ± 749 number/mm2 | 18259 ± 1051 number/mm2 | not significant | protected CMAP amplitude | – | – |
| B1 | – | – | – | – | – | – | – | – | – | – | – | – | – | – | – | – | – | improved | showed efficacy |

— patent US20180263945A1, “PYRUVATE COMPOUNDS FOR TREATMENT OF PERIPHERAL NEUROPATHY” (Research Institute at Nationwide Children's Hospital, priority 2014, published 2018)
